This note sets out measurements from patent publication US20250388575A1, “HETEROBIFUNCTIONAL COMPOUNDS AND METHODS OF TREATING DISEASE” (Halda Therapeutics OpCo, Inc., priority 2022, published 2025).

Assay [1] relates to VCaP cells. The assay can be described thus: Cellular growth inhibition assay for VCaP cells, CellTiter-Glo. As to conditions: VCaP cells, 72 hours, CellTiter-Glo, read-out: GI50. It counts as cell-based, human. As for the experimental part: VCaP cells were purchased from American Type Cell Culture (ATCC Cat #CRL2876) and then seeded on poly-D-lysine coated, black clear-bottom 384-well plates at 5000/well in 25 μL Dulbecco's Modified Eagle Medium (DMEM) supplemented with 10% w/w Fetal bovine serum (FBS) and 1% w/w Pen-Strep. Pen-Strep is a commercially available mixture of penicillin G and streptomycin, which is used in mammalian cell culture media to prevent bacterial contamination. Dulbecco's Modified Eagle Medium (DMEM) supplemented with 10% w/w fetal bovine serum (FBS) and 1% w/w Pen-Strep is herein referred to as Treatment Medium. Following seeding of cells in the plates, the plates were spun at 300×g for 30 seconds, then equilibrated to room temperature for 30 minutes, and then deposited in a humidified tissue culture incubator maintained at 37° C. with 5% CO2.
(§1) At 24 hours after seeding of the cells, dilutions of test compound were prepared in DMSO and dissolved in Treatment Medium, to achieve a final DMSO concentration of 0.5% w/w, thereby providing the Test Compound Solution. A 25 μL aliquot of the Test Compound Solution was added to cells in the well plates. An equal volume of a solution containing DMSO and Treatment Medium was used as a negative control. Following treatment of cells with Test Compound Solution or said equal volume of a solution containing DMSO and Treatment Medium, the plates were spun at 300×g for 30 seconds, and then left in an incubator for 72 hours.
(§2) At the end of the treatment duration, cell viability was quantified with CellTiter-Glo 2.0 reagent (Promega Cat #G9243). For this purpose, plates were equilibrated to room temperature for 30 minutes, and then 25 μL of CellTiter-Glo 2.0 reagent was added to cells in the plate wells. Plates were then agitated on a shaker for two minutes at 500 rpm and subsequently incubated at room temperature for 10 minutes. Following incubation, the plates were spun at 3000×g for 30 seconds, then sealed with an optical adhesive cover, and luminescence readings were measured with an EnVision Plate Reader.
(§3) Data was normalized using zero luminescence for baseline. A four-parameter non-linear regression curve fit was applied to dose-response data in GraphPad Prism data analysis software to determine the half-maximal growth inhibitory concentration (GI50) for each test compound.
Background: ATP-based viability assays read luminescence as a measure of living cells.

Assay [2] has as its system T-Rex 293 cell line SC3 cells lacking increased expression of androgen receptor protein. The assay can be described thus: Cellular growth inhibition, T-Rex 293 SC3 cells lacking increased androgen receptor expression (no doxycycline), CellTiter-Glo. It counts as cell-based. The settings on record: T-Rex 293 SC3 cells lacking increased androgen receptor expression (not exposed to doxycycline), 72 hours, CellTiter-Glo; read-out: GI50. As for the experimental part:
(§4) The following types of cells were prepared for this experiment: (i) a T-Rex 293 cell line having increased expression of androgen receptor protein due to exposure to doxycycline and (ii) a T-Rex 293 cell line lacking increased expression of androgen receptor protein. Ability of the test compounds to inhibit proliferation of the foregoing cell types was evaluated according to the procedures set forth below.
(§5) The doxycycline-inducible androgen receptor protein expressing cell line was established using the following protocol: T-Rex 293 cells were purchased from Invitrogen (Cat #R71007) and transfected using Lipofectamine 2000 with the wild-type androgen receptor protein sequence cloned into the pcDNA4/TO vector. Transfected cells were selected using 400 μg/mL Zeocin (Invitrogen Cat #R25001). Following selection, single clones were raised and maintained in Dulbecco's Modified Eagle Medium (DMEM) supplemented with 10% w/w Tetracycline-free fetal bovine serum (FBS) and 250 μg/mL Zeocin. Clones were analyzed for expression of androgen receptor protein in the presence and absence of 10 ng/ml doxycycline (Sigma Cat #D9891), and a single doxycycline-inducible clone (hereinafter “SC3”) was selected for use in downstream assays.
(§6) The SC3 cells were seeded on poly-D-lysine coated, black clear-bottom 384-well plates at 2500/well, in 25 μL Phenol Red Free Dulbecco's Modified Eagle Medium (DMEM) supplemented with 10% w/w charcoal-dextran treated fetal bovine serum (FBS) and 1% w/w pen-strep, with or without 10 ng/mL doxycycline. Pen-Strep is a commercially available mixture of penicillin G and streptomycin, which is used in mammalian cell culture media to prevent bacterial contamination. Phenol Red Free Dulbecco's Modified Eagle Medium (DMEM) supplemented with 10% w/w charcoal-dextran treated fetal bovine serum (FBS) and 1% w/w pen-strep, with or without 10 ng/mL doxycycline is herein referred to as Treatment Medium. Following seeding of cells in the plates, the plates were spun at 300×g for 30 seconds, then equilibrated to room temperature for 30 minutes, and then deposited in a humidified tissue culture incubator maintained at 37° C. with 5% CO2.
as §1, §2, §3

For assay [3], the system named is T47D cells. Kind of assay: Cellular growth inhibition assay for T47D cells, CellTiter-Glo. As to conditions: 72 hours treatment, CellTiter-Glo 2.0. It counts as cell-based, human. As to the method: T47D cells were purchased from American Type Cell Culture (ATCC Cat #HTB-133) and then seeded on poly-D-lysine coated, black clear-bottom 384-well plates at 3000/well in 25 μL Dulbecco's Modified Eagle Medium (DMEM) supplemented with 10% w/w Fetal bovine serum (FBS), 0.2 units/mL recombinant human insulin (Gibco Cat #12585014), and 1% w/w Pen-Strep. Pen-Strep is a commercially available mixture of penicillin G and streptomycin, which is used in mammalian cell culture media to prevent bacterial contamination. Dulbecco's Modified Eagle Medium (DMEM) supplemented with 10% w/w fetal bovine serum (FBS), 0.2 units/mL recombinant human insulin, and 1% w/w Pen-Strep is herein referred to as Treatment Medium. Following seeding of cells in the plates, the plates were spun at 300×g for 30 seconds, then equilibrated to room temperature for 30 minutes, and then deposited in a humidified tissue culture incubator maintained at 37° C. with 5% CO2.
as §1
as §2, with “Reader (Perkin Elmer).” for “Reader.”
as §3

Assay [4] deals with T-Rex 293 cell line SC3 cells having increased expression of androgen receptor protein. Kind of assay: Cellular growth inhibition, T-Rex 293 SC3 cells with increased androgen receptor expression (doxycycline), CellTiter-Glo. It counts as cell-based. The settings on record: T-Rex 293 SC3 cells with increased androgen receptor expression (exposed to 10 ng/mL doxycycline), 72 hours, CellTiter-Glo; read-out: GI50. As to the method:
as §4, §5, §6, §1, §2, §3

Each structure is given as a SMILES string. Read-outs that look alike come from different tables or passages of the source.

`Cn1cc(-c2cc(C(C)(C)O)ccc2Oc2ccc(CC3CC4(CCN(c5ccc(C(=O)N[C@H]6CC[C@H](Oc7ccc(C#N)c(Cl)c7)CC6)nn5)CC4)C3)cc2)c2cc[nH]c2c1=O` [I-130]: the GI50 in assay [1] (Homo sapiens), in assay [2], in assay [3] (Homo sapiens) and in assay [4] was below 500 nM each time.
Regarding `Cn1cc(-c2cc(C(C)(C)O)ccc2Oc2ccc(CCCC3CN(c4ccc(C(=O)N[C@H]5CC[C@H](Oc6ccc(C#N)c(Cl)c6)CC5)nn4)C3)cc2)c2cc[nH]c2c1=O` [I-127], the 50% growth inhibitory concentration (GI50) – broadly, the concentration that inhibits growth by half – was below 500 nM in assay [1], 500 to 1500 nM in assay [2], below 500 nM in assay [3] and below 500 nM in assay [4].
Consider `CCS(=O)(=O)c1ccc(Oc2ccc(CCC3CCN(c4ccc(C(=O)N[C@H]5CC[C@H](Oc6ccc(C#N)c(Cl)c6)CC5)nn4)CC3)c(OC)c2)c(-c2cn(C)c(=O)c3[nH]ccc23)c1` [I-82], for which the GI50 in assay [1], in assay [2], in assay [3] and in assay [4] was below 500 nM each time.
Regarding `CCS(=O)(=O)c1ccc(Oc2ccc(CCC3CCN(c4ccc(C(=O)N[C@H]5CC[C@H](Oc6ccc(C#N)c(Cl)c6)CC5)nn4)CC3)c(Cl)c2)c(-c2cn(C)c(=O)c3[nH]ccc23)c1` [I-84], the GI50 in assay [1] is below 500 nM; in assay [2] it was above 3000 nM; in assay [3], below 500 nM; in assay [4], below 500 nM.
With `CCS(=O)(=O)c1ccc(Oc2ccc(N3CC(C4CCN(c5ccc(C(=O)N[C@H]6CC[C@H](Oc7ccc(C#N)c(Cl)c7)CC6)nn5)CC4)C3)cc2)c(-c2cn(C)c(=O)c3[nH]ccc23)c1` [I-91], the GI50 in assay [1], in assay [2], in assay [3] and in assay [4] was below 500 nM throughout.
Take `Cn1cc(-c2cc(C(C)(C)O)ccc2Oc2ccc(CCCC3CCN(c4ccc(C(=O)N[C@H]5CC[C@H](Oc6ccc(C#N)c(Cl)c6)CC5)nn4)CC3)cc2)c2cc[nH]c2c1=O` [I-124]: the 50% growth inhibitory concentration (GI50) in assay [1] (Homo sapiens) and in assay [3] (Homo sapiens) was below 500 nM each time.
With `CN(CCCCc1ccc(Oc2ccc(C(C)(C)O)cc2-c2cn(C)c(=O)c3[nH]ccc23)cc1)c1ccc(C(=O)N[C@H]2CC[C@H](Oc3ccc(C#N)c(Cl)c3)CC2)nn1` [I-122], the GI50 in assay [1] and in assay [3] was below 500 nM in each case.
As for `CCS(=O)(=O)c1ccc(Oc2ccc(CCC3CCN(c4ccc(C(=O)NC5CCC(Oc6ccc(C#N)c(Cl)c6)CC5)nn4)CC3)cc2F)c(-c2cn(C)c(=O)c3[nH]ccc23)c1` (stereo not drawn) [I-45, N-[4-(3-chloro-4-cyano-phenoxy)cyclohexyl]-6-[4-[2-[4-[4-ethylsulfonyl-2-(6-methyl-7-oxo-1H-pyrrolo[2,3-c]pyridin-4-yl)phenoxy]-3-fluoro-phenyl]ethyl]-1-piperidyl]pyridazine-3-carboxamide], the GI50 in assay [1] (Homo sapiens), in assay [2] and in assay [4] was below 500 nM in each case.
Regarding `CCS(=O)(=O)c1ccc(Oc2cccc(OCCOC3CCN(c4cnc(C(=O)N[C@H]5CC[C@H](Oc6ccc(C#N)c(Cl)c6)CC5)cn4)CC3)c2F)c(-c2cn(C)c(=O)c3[nH]ccc23)c1` [I-32], the GI50 in assay [1] (Homo sapiens), in assay [2] and in assay [4] was below 500 nM in each case.
Consider `CCS(=O)(=O)c1ccc(Oc2ccc(CCC3CCN(c4ccc(C(=O)NC5CCC(Oc6ccc(C#N)c(Cl)c6)CC5)nn4)CC3)c(F)c2)c(-c2cn(C)c(=O)c3ccccc23)c1` (stereo not drawn) [I-243, N-[4-(3-chloro-4-cyano-phenoxy)cyclohexyl]-6-[4-[2-[4-[4-ethylsulfonyl-2-(2-methyl-1-oxo-4-isoquinolyl)phenoxy]-2-fluoro-phenyl]ethyl]-1-piperidyl]pyridazine-3-carboxamide], for which the 50% growth inhibitory concentration (GI50) in assay [1] (Homo sapiens) was below 500 nM; in assay [2], above 3000 nM; in assay [4] it was below 500 nM.
Turning to `Cn1cc(-c2cc(C(C)(C)O)ccc2Oc2ccc(CN3CC4(CCN(c5ccc(C(=O)N[C@H]6CC[C@H](Oc7ccc(C#N)c(Cl)c7)CC6)nn5)CC4)C3)cc2)c2cc[nH]c2c1=O` [I-120], the GI50 in assay [1] (Homo sapiens), in assay [2] and in assay [4] was below 500 nM each time.
As for `CCS(=O)(=O)Nc1ccc(Oc2cccc(OCCOC3CCN(c4ncc(C(=O)N[C@H]5CC[C@H](Oc6ccc(C#N)c(Cl)c6)CC5)cn4)CC3)c2)c(-c2cn(C)c(=O)c3[nH]ccc23)c1` [I-5, N-[4-(3-chloro-4-cyano-phenoxy)cyclohexyl]-2-[4-[2-[3-[4-(ethylsulfonylamino)-2-(6-methyl-7-oxo-1H-pyrrolo[2,3-c]pyridin-4-yl)phenoxy]phenoxy]ethoxy]-1-piperidyl]pyrimidine-5-carboxamide], the results for the GI50 in assay [1] (Homo sapiens), in assay [2] and in assay [4] were below 500 nM, 500 to 1500 nM and below 500 nM, respectively.
Take `CCS(=O)(=O)Cc1ccc(Oc2cccc(OCCOC3CCN(c4ccc(C(=O)N[C@H]5CC[C@H](Oc6ccc(C#N)c(Cl)c6)CC5)nn4)CC3)c2F)c(-c2cn(C)c(=O)c3[nH]ccc23)c1` [I-22]: the GI50 in assay [1] (Homo sapiens), in assay [2] and in assay [4] was below 500 nM each time.
In the case of `CCS(=O)(=O)c1ccc(Oc2ccc(CCCCC3CCN(c4ccc(C(=O)N[C@H]5CC[C@H](Oc6ccc(C#N)c(Cl)c6)CC5)nn4)CC3)cc2)c(-c2cn(C)c(=O)c3[nH]ccc23)c1` [I-64], the results for the GI50 in assay [1], in assay [2] and in assay [4] were below 500 nM, 500 to 1500 nM and below 500 nM, respectively.
For `Cn1cc(-c2cc(C(C)(C)O)ccc2Oc2ccc(C3CC4(CCN(c5ccc(C(=O)N[C@H]6CC[C@H](Oc7ccc(C#N)c(Cl)c7)CC6)nn5)CC4)C3)cc2)c2cc[nH]c2c1=O` [I-117], the GI50 in assay [1], in assay [2] and in assay [4] was below 500 nM in each case.
